How the values were obtained:
[1] = orally administered, women; cited from earlier work
[2] = Particle size distribution by laser diffraction; assay type: physicochemical; conditions: SHR0302 used in Example 1, Malvern Hydro MV, ethyl acetate dispersion
Source text: In the pharmaceutical compositions of the present invention, the active ingredient is present as small particles. Particle size of the drug can be assessed using laser diffraction methods. Laser diffraction is recognized by standards and guidance agencies including ISO and ASTM and is widely used to determine particle size distributions. In conducting the assessment, the sample is passed through a laser beam, which results in laser light scattered at a range of angles. Detectors placed at fixed angles measure the intensity of light scattered at that position. A mathematical model is then applied to generate a particle size distribution. The particle size values reported herein are determined by using a liquid or wet dispersion method.
In particle size determinations, the median value is defined as the value where half of the population resides above this point, and half resides below this point. For particle size distributions the median is called the D50. The D50 is the size that splits the distribution with half above and half below this diameter. The distribution width may also be characterized by citing one, two or three values on the x-axis, typically some combination of the D10, D50, and D90. The D50, the median, has been defined above as the diameter where half of the population lies below this value. Similarly, 90 percent of the distribution lies below the D90, and 10 percent of the population lies below the D10.
A pharmaceutical composition comprising 3% SHR0302 suspended in dimethicone was prepared. The primary particle size distribution of the SHR0302 is characterized by a D10 value of less than about 0.25 μm; a D50 value of less than about 0.7 μm; and a D90 value of less than about 5 μm. The pharmaceutical composition was a transparent solution due to the particles being too small to scatter visible light. A Malvern Metasizer Model 3000 using the Hydro MV dispersion unit was used to determine the particle size distribution profile of SHR0302. […]

JAK1 = JAK1 (Homo sapiens, UniProt P23458); conditions: in words; cited from earlier work
Chain of JAK1 (P23458 whole entry): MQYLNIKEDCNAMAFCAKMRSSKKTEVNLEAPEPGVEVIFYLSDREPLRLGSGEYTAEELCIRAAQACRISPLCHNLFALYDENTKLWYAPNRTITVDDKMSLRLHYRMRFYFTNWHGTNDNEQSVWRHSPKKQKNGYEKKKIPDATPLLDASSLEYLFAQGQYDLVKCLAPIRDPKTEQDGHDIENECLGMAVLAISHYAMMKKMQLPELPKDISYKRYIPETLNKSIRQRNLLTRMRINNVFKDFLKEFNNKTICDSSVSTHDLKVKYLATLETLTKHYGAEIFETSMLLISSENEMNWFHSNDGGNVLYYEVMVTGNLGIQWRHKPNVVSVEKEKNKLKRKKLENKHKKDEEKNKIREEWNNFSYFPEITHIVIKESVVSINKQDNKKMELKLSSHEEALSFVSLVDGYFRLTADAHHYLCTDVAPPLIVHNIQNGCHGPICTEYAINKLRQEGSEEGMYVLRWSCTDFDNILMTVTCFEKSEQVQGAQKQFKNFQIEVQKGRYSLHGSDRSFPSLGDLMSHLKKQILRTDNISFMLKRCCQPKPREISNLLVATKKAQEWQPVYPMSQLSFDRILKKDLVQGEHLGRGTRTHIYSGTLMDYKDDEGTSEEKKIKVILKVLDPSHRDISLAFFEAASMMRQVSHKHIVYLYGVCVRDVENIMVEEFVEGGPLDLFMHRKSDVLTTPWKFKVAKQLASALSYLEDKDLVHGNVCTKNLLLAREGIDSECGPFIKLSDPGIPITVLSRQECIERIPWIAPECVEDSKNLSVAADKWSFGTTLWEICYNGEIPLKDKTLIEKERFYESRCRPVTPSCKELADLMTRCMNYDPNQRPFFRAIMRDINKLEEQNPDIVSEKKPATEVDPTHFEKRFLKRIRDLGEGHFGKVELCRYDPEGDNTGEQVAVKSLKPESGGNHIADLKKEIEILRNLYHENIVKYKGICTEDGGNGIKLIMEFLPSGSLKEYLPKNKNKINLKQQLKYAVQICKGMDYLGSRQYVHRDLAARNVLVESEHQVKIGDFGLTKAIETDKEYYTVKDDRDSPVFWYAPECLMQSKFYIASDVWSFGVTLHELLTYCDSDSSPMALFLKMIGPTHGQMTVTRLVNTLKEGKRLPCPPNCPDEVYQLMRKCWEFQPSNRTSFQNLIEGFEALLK

| SMILES | efficacy in treatment of acne [1] | primary particle size distribution D10 [2] | primary particle size distribution D50 [2] | primary particle size distribution D90 [2] | inhibition of JAK1 (JAK1) | selectivity for JAK1 over JAK2 (JAK1) |
| --- | --- | --- | --- | --- | --- | --- |
| CC(=O)S[C@@H]1CC2=CC(=O)CC[C@]2(C)[C@H]2CC[C@@]3(C)[C@@H](CC[C@@]34CCC(=O)O4)[C@H]12 [spironolactone, 17-hydroxy-7α-mercapto-3-oxo-17α-pregn-4-ene-21-carboxylic acid γ-lactone acetate] | efficacious | – | – | – | – | – |
| COc1nsc(NC(=O)N2C[C@H]3C[C@H](N(C)c4ncnc5[nH]ccc45)C[C@H]3C2)n1 [SHR0302, (3aR,5S,6aS)-N-(3-methoxyl-1,2,4-thiadiazol-5-yl)-5-(methyl(7H-pyrrolo[2,3-d]pyrimidin-4-yl)amino)hexahydrocyclopenta[c]pyrrole-2(1H)-carboxamide] | – | less than 0.25 μm | less than 0.7 μm | less than 5 μm | potent | high selectively for JAK1 over JAK2 |

From US20240382502A1, “COMPOSITIONS AND METHODS FOR DEEP DERMAL DRUG DELIVERY” (ARCUTIS BIOTHERAPEUTICS, INC., priority 2020, published 2024)
